In publication PMC6961810 (2019):

Legend:
[1] = system: mut-mt (RNA, rRNA) GGCGUCACCCUCCUC/GAGGAGGCAAGUCGCC; test: fluorescence titration; conditions: 150 mM NaCl, 3 mM Na2EDTA; apparent; 10 mM HEPES pH 7.4; 1 μM RNA
[2] = system: wt-mt (RNA, rRNA) GGCGUCACCCUCCUC/GAGGAGACAAGUCGCC; test: fluorescence titration; conditions: 150 mM NaCl, 3 mM Na2EDTA; apparent; 10 mM HEPES pH 7.4; 1 μM RNA

CCC[C@H]1[C@H](O)[C@@H](N)[C@@H](O[C@H]2[C@H](O[C@@H]3O[C@H](CO)[C@@H](O[C@H]4O[C@@H](CN)[C@@H](O)[C@H](O)[C@H]4N)[C@H]3O)[C@@H](O)[C@H](N)C[C@@H]2N)O[C@@H]1CO
Kd [1]: 5.8 ± 1.8 µM
Kd [2]: 26.9 ± 4.7 µM

CCO[C@H]1[C@H](O)[C@@H](N)[C@@H](O[C@H]2[C@H](O[C@@H]3O[C@H](CO)[C@@H](O[C@H]4O[C@@H](CN)[C@@H](O)[C@H](O)[C@H]4N)[C@H]3O)[C@@H](O)[C@H](N)C[C@@H]2N)O[C@@H]1CO
Kd [1]: 8.6 ± 2.1 µM
Kd [2]: 12.8 ± 2.8 µM

NC[C@@H]1O[C@H](O[C@H]2[C@@H](O)[C@H](O[C@@H]3[C@@H](O)[C@H](N)C[C@H](N)[C@H]3O[C@H]3O[C@H](CN)[C@@H](O)[C@H](O)[C@H]3N)O[C@@H]2CO)[C@H](N)[C@@H](O)[C@@H]1O
Kd [1]: 0.1 ± 0.02 µM
Kd [2]: 1.1 ± 0.5 µM

NC[C@@H]1O[C@H](O[C@H]2[C@@H](O)[C@H](O[C@@H]3[C@@H](O)[C@H](N)C[C@H](N)[C@H]3O[C@H]3O[C@H](CO)[C@@H](O)[C@H](O)[C@H]3N)O[C@@H]2CO)[C@H](N)[C@@H](O)[C@@H]1O
Kd [1]: 2.8 ± 0.5 µM
Kd [2]: 6.5 ± 0.9 µM
